No end group written: not given here.
Legend:
[1] = test system: K562 cells; assay: Sorting of K562 cells expressing flankedccstreptag, RQR8, GST or H6 tags with their respective beads; format: cell-based; details: for eGFP positive cells in the flow-through fraction / eGFP positive cells in the sorted fraction: K562, respective beads, 12 days post sorting; for eGFP positive cells, pre-sorted population: retrovirally transduced K562 before sorting
Procedure: K562 cells were retrovirally transduced with the four constructs individually. Subsequently cell populations were sorted with their respective beads as per manufacturer protocol. Protein-A Dynabeads were previously incubated with clinical grade human-rituximab over-night at 4 C and washed 5× with PBS to remove any unbound rituximab before adding it to the cells. Sorted fractions were collected as well as the flow through for all sorting. Fractions were assessed for positive cells based on eGFP expression by flow cytometery with a blank channel to account for auto fluorescence from dead cells.
The efficiencies of the different tags (GST, RQR8 and His-tag) at purifying lentiviral particles from cellular media, was tested using the approach previously described for flankcedccstreptag (see Example 2), i.e. by sorting K562 cells expressing these tags on their surface. K562 cells were retrovirally transduced with flankedccstreptag, GST, RQR8 and H6 epitopes separately (FIG. 8, Pre-sorted column). Transduced cells represented a minority of the total population based on eGFP expression; therefore cells were not mixed with NT-K562 cells. Populations expressing flankedccstreptag at 10.5%, RQR8 at 9.75%, GST at 22.7% and H6 […] were thereafter sorted with Streptavidin Dynabeads, human rituximab previously incubated with protein-A bead, Glutathione magnetic beads and His-tag Dynabeads respectively.
Collected fractions were assessed for positive cells 12 days-post sorting. […] Moreover, K562 cells expressing GST epitope were successfully purified from pre-sorting population with 91% eGFP positive cells present in the sorted fraction. […] Conversely, K562 expressing H6 sorting was less successful as only 26.1% of cells in the sorted fraction were eGFP positive while 71.1% of cells were eGFP negative. Additionally, 59.2% eGFP positive cells were in the flow-through. The GST and RQR8 tags therefore show the best activity with regard to purifying viral particles from cellular supernatant in the same manner as flankcedccstreptag epitope.

[2] = test system: NT-293T cells; format: cell-based, human
[3] = biological target: T1, Streptavidin (Streptomyces avidinii, UniProt P22629); assay: Streptavidin-APC staining of HEK 293T cells transfected with tag constructs, flow cytometry; format: cell-based; details: 48 hrs post-transfection
T1 sequence (P22629 25-183): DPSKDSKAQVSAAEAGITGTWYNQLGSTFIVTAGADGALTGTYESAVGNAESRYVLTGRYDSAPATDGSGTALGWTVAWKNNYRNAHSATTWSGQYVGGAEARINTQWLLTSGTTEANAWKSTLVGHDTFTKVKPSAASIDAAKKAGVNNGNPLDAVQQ
Procedure: A. Schematic diagram of the amino acid sequences of the six Streptavidin-binding tags on a CD8 stalk. These constructs co-express the green fluorescent protein (eGFP) via an internal ribosome entry sequence (IRES) downstream of the first open reading frames. B. The constructs were transfected into HEK 293T cells and stained with Streptavidin-APC 48 hours post-transfection and analysed by flow-cytometry. Binding of streptavidin (y-axis) is plotted against eGFP signal.
FIG. 3: Transfection of 293T cells with StreptagII, Flankedccstreptag and ccstretag epitopes in three different formats shown in FIG. 2. 293T cells were also transfected with an irrelevant protein (HA1-TCR beta) co-expressed with eGFP as a negative control. […] Tags were expressed on either a CD8 stalk, a GPI anchor (×1) with one open reading frame or with a GPI anchor (×2) with two copies of the open reading frame. 293T cells transfected with the tagging proteins were stained with Streptavidin APC. The cells were all analysed by flow-cytometry and Streptavidin APC binding (y-axis) is plotted against eGFP signal (x-axis).
An expression construct coding for a signal peptide attached to the amino terminal of theses tags was generated. In addition, the carboxy terminal of these peptide tags was attached to the CD8 stalk, CD8 transmembrane domain and a short part of the CD8 endodomain sufficient to anchor the protein to the membrane. To test their binding to streptavidin, HEK 293T cells were transfected with each construct individually and 48 hrs post-transfection cells were harvested and stained with Streptavidin conjugated to the fluorophore Allophycocyanin (APC) (FIG. 1B).
The optimal format to express these tags on the cell surface for streptavidin binding was then investigated. Additional plasmids were constructed where these tags are expressed on a GPI anchor with one copy of the tags' open reading frames and GPI anchor with two copies of the open reading frames separated by a CD8-based linker (the annotated amino acid sequences of these constructs are depicted in FIG. 2). The binding of these tags was compared with that of the original constructs where the epitopes were placed on a CD8 stalk.
To test their binding to Streptavidin, HEK 293T cells were transiently transfected with the constructs and stained 48 hrs post-transfection with Streptavidin-APC (FIG. 3).

[4] = biological target: T1, Streptavidin; details: biotin mimicking peptide binding streptavidin; read-out: affinity; cited from earlier work
[5] = test system: K562 cells; assay: Sorting of K562 cells expressing Flankedccstreptag formats with streptavidin beads; format: cell-based
Procedure: Transduced K562 were close to 100% positive for the transgenes after transduction. Positive cells were mixed with non-transduced (NT) K562 pre-sorting. The mixture was incubated with both streptavidin dynabeads (Life technologies, Cat. No. 65601) and streptavidin-microbeads (Miltenyi, Cat. No. 130-048-101) as per manufacturer protocol. The sorted cellular fraction was collected as well as flow-through fraction for both protocols. Sorting was assessed by streptavidin-APC staining and for eGFP positive cell populations 9 days post sorting by flow cytometry.
To establish that the two versions of Flankedccstreptag are able to purify lentivirus from cellular supernatant, an initial experiment was carried out involving sorting of K562 cells expressing these tags on their surface using streptavidin beads. We reasoned that if the tags could attach to a streptavidin matrix while expressed on cells with sufficient stability to allow sorting of expressing cells, they should be suitable for lentiviral capture too.
K562 cells were retrovirally transduced to express the two tags and transduction efficiencies were determined by eGFP expression using flow cytometry (FIG. 4 Transduced K562 plot). Subsequently, transduced cells were mixed with non-transduced K562 to assess the efficiency of sorting using two streptavidin-beads sourced from Life technologies (Dynabeads) and Miltenyi (Microbeads). […]

## RQR8: tag with rituximab-binding and Qbend10 epitopes on CD8 stalk, SEQ ID NO: 21
[1]
  eGFP positive cells in the flow-through fraction: absence of eGFP positive cells
  eGFP positive cells in the sorted fraction: 89.4%
  eGFP positive cells, pre-sorted population: 9.75%
[2]
  transduction efficiency, neat supernatant: high transduction efficiencies

## disulphide constrained biotin mimicking peptide CHPQGPPC (SEQ ID NO: 3) [ccstreptag]
[3]; tag on CD8 stalk
  binding to Streptavidin-APC: successfully bound
[4]
  Kd: 230 nM

## biotin mimicking peptide DVEAWLGAR (SEQ ID NO: 36) (Biotin mimicking peptide, short nanotag)
[3]; tag on CD8 stalk
  binding to Streptavidin-APC: did not exhibit any binding
[4]
  Kd: 17 nM

## flankedccstreptag-d8-x2-GPI: two Flankedccstreptag copies separated by CD8-based linker (SEQ ID NO: 5) on a GPI anchor (ECHPQGPPCIEGRKSSGGGGSPAPRPPTPAPTIASECHPQGPPCIEGRKS; cysteine pairing not given here; also: on a GPI anchor, small tags and cut ends left off)
[5]; streptavidin microbeads (Miltenyi)
  sorting of tag-expressing K562 cells from mixture with NT K562: successful
[5]; streptavidin-dynabeads (Life technologies), eGFP
  sorting of tag-expressing K562 cells from mixture with NT K562: successfully sorted

## biotin mimicking peptide WSHPQFEK (SEQ ID NO: 1) [streptagll]
[3]; tag on CD8 stalk
  binding to Streptavidin-APC: successfully bound
[4]
  Kd: 72000 nM

## biotin mimicking peptide DVEAWLDERVPLVET (SEQ ID NO: 35) (Biotin mimicking peptide, long nanotag)
[3]; tag on CD8 stalk
  binding to Streptavidin-APC: did not exhibit any binding
[4]
  Kd: 3.6 nM

## Flankedccstreptag: biotin mimic tag AECHPQGPPCIEGRK (SEQ ID NO: 2) expressed at the cell surface as tagging protein (Biotin mimicking peptide, flankedccstreptag)
[3]; tag on CD8 stalk
  binding to Streptavidin-APC: successfully bound
[3]; tag on GPI anchor, two open reading frames (x2)
  binding to Streptavidin-APC: higher binding efficiency than StreptagII and ccstreptag
[1]
  eGFP positive cells in the flow-through fraction: absence of eGFP positive cells
  eGFP positive cells in the sorted fraction: 93.6%
  eGFP positive cells, pre-sorted population: 10.5%
[2]
  transduction efficiency, neat supernatant: high transduction efficiencies

— patent publication US10745715B2, “Method and means for purifying retroviral vectors” (UCL BUSINESS PLC, priority 2014, dated 2020)
